Data on 80 compounds can be found in the METLIN SMRT retention time set (Domingo-Almenara et al. 2019).

A short description of the series: gradient 5% acetonitrile 3 min, to 50% in 2 min, to 85% in 15 min, held 3 min, 100 µL/min. Conditions: column: Zorbax Extend-C18 2.1 x 50 mm; eluents: water / acetonitrile, 0.1% formic acid. In short, it runs like this: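 Values are retention times taken from adduct peaks that software picked and an analyst inspected. The pure standards were run as mixtures of ~100 molecules on HPLC linked to a quadrupole time-of-flight mass spectrometer, in positive and negative ionization mode. A Zorbax Extend-C18 column (2.1 × 50 mm, 1.8 μm) was used at 100 μL/min with water and acetonitrile, each including 0.1% formic acid.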
`CCN(CC)CCNC(=O)c1ccnc(-c2cccs2)c1` yielded an RP-LC retention time of 597 s. The result for `COCCNC(=O)Cn1cccc1-c1nc(-c2ccc(Cl)cc2)cs1` reads 988 s; that for `CCc1cccc(NC(=O)C2(Cc3ccccc3)CCCCC(=O)N2)c1` (stereo not given), 931 s; that for `COc1cccc(CN2CCc3nn(CC4CC4)c(=O)n3CC2)n1`, 595 s. For `CC(C)c1c(C2CCN(C(=O)C3(c4ccccc4)CC3)CC2)noc1N` the value was 813 s. `O=C(c1ccco1)N1CCN(C(=O)C2CCN(c3nc4ccccc4[nH]c3=O)CC2)CC1` came in with an RP-LC retention time of 631 s. As to `COc1ccc(-c2ncccc2CNS(=O)(=O)c2ccc(C(F)(F)F)cc2)cc1`, the RP-LC retention time is 764 s.

Regarding `COC(=O)C1=CN(c2cc(Cl)ccc2OC)c2cc(F)ccc2S1(=O)=O`, the RP-LC retention time is 909 s. For the compound `COc1ccc(-c2ncc3c(n2)CCN(C(=O)c2cc(F)ccc2Cl)C3)cc1`, the RP-LC retention time was 966 s. The result for `Cc1cc(C(=O)N2C[C@@H](CO)[C@H](c3nc(C4CC4)no3)C2)c(C)o1` reads 706 s. The result for `CCc1ccc(-n2nnc(C(=O)N3CCC(N4CCCCC4)CC3)c2-c2ccncc2)cc1` reads 634 s.

For the compound `CC(C)NC(=O)c1ccc2c(c1)N(C)C(=O)CS2`, the RP-LC retention time stood at 698 s. The result for `c1cc(-c2nc(-c3ccc4nncn4c3)no2)co1` reads 679 s; that for `C=CCn1c2ccccc2c2nnc(SC(CC)C(=O)Nc3nc(-c4ccccc4)cs3)nc21` (stereo not given), 1190 s.

The compound `COC(=O)c1cc(S(=O)(=O)N2CCCC2C(=O)NCc2ccccc2C)cn1C` (stereo not given) gave an RP-LC retention time of 846 s.

Regarding `CCN(CC)c1nc(-c2ccc([N+](=O)[O-])cc2)nc2ccccc12`, the RP-LC retention time came out at 771 s. The result for `COc1ccc(OC)c(CNC(=O)c2c(C)sc3ccn(C)c(=O)c23)c1` reads 688 s.

The compound `CCn1c(=O)n(Cc2cccc(Cl)c2)c(=O)c2cnc(-c3ccc(OC)cc3)nc21` had an RP-LC retention time of 1340 s.

`CC(C)NC(=O)c1ccc(OCC2CCN(C(=O)c3ccsc3)CC2)cc1` came in with an RP-LC retention time of 797 s. The result for `O=C(Nc1nccs1)c1cccc(NS(=O)(=O)c2ccc(F)cc2)c1` reads 751 s; that for `O=C(Cn1c(CN2CCCCCC2)nc2ccccc21)N1CCCCCC1`, 678 s; that for `O=C(Nc1ccc(Br)cc1F)c1cc(-c2cccnc2)n[nH]1`, 733 s.

`COCCN1C(=O)[C@H]2CN(Cc3cccc(Cl)c3)C[C@H]2C1=O` registered an RP-LC retention time of 633 s. The result for `COc1nc2ccccc2nc1N1CCCC(C(=O)N2CCN(c3ccccc3)CC2)C1` (stereo not given) reads 1220 s; that for `COc1ccc(C)cc1Nc1c(C(=O)N2CCCC2)cnc2nc(C)ccc12`, 601 s. Take `COC(=O)c1ncn2c1C(=O)N(Cc1ccccc1Cl)C(C)(C(=O)NC1CCCCC1)C2` (stereo not given): the RP-LC retention time was 804 s.

As to `CC(C)CCNC(=O)C1(C)Cn2nc(C(=O)NCCc3ccccc3)cc2C(=O)N1C` (stereo not given), the RP-LC retention time turned out to be 791 s.

With `CCNC(=O)c1cn(-c2ccc(SCC(=O)Nc3ccc(Cl)cc3F)nn2)cn1`, the RP-LC retention time turned out to be 702 s. For `Cc1nnc(-c2ccc3ccn(CC(=O)N4CCN(Cc5ccc6c(c5)OCO6)CC4)c3c2)o1` the value was 651 s; for `Cc1csc(-c2cn(CC(=O)Nc3ccc(C)c(F)c3)cn2)n1`, 728 s; for `Cc1cc(N2CCN(C)CC2)nc2ccc(NC(=O)Nc3ccccc3Cl)cc12`, 604 s.

For the compound `CCN(CC)CCNC(=O)C1CCN(c2nc3cccnc3s2)CC1`, the RP-LC retention time was 573 s. Consider `OC(CN1CCN(c2ncccn2)CC1)c1ccc(Cl)cc1` (stereo not given), for which the RP-LC retention time was found to be 614 s.

Turning to `COc1ccccc1NC(=O)N1C[C@H](c2nc(-c3ccccc3)no2)[C@@H](C)C1`, the RP-LC retention time amounted to 883 s. For `CCOC(=O)N1CCC(NC(=O)C(=O)NCCC2=CCCCC2)CC1` the value was 842 s; for `CC(C)n1c(=O)c(NCCc2ccccc2)nc2ccncc21`, 672 s.

Turning to `Cc1csc(-c2cc(S(=O)(=O)NCC(C)C)cn2CC(=O)N2CCCCC2)n1`, the RP-LC retention time came out at 926 s. For `COc1ccc(CNC(=O)N2CCC3(C2)C(=O)N(C)c2ccccc23)cc1` (stereo not given) the value was 734 s. `Cc1ccc(F)cc1NC(=O)CSc1nc(N2CCCCC2)nc2ccccc12` displayed an RP-LC retention time of 778 s. The result for `Cc1ccc(S(=O)(=O)N2CCC(C)(C(=O)NCc3ccccc3C)CC2)c(C)c1` reads 1040 s; that for `Cc1ccc(-c2cn3c(n2)N(C(=O)c2nc4ncccn4n2)CCC3)cc1`, 611 s; that for `Cc1cccc(C)c1NC(=O)Cn1nc2cc(-c3ccccc3)nc(C)n2c1=O`, 832 s.

Regarding `CCN1CCN(c2cc(C)c3cc(NC(=S)NC4CCCC4)ccc3n2)CC1`, the RP-LC retention time came out at 572 s. The result for `O=C(c1cccs1)N1CCCC(c2nncn2-c2ccccc2)C1` (stereo not given) reads 688 s; that for `CCS(=O)(=O)N1CCCc2cc(C(=O)Nc3ccc(Br)cc3)ccc21`, 1030 s. The result for `Cc1ccc(Sc2nccnc2N2CCCC(C(=O)NCc3ccccc3Cl)C2)cc1` (stereo not given) reads 1150 s; that for `O=C(Nc1nnc(SCc2nnc(-c3ccccc3)o2)s1)C1CCCCC1`, 934 s; that for `CCCN1CCN(CCNC(=O)C2CCCN(c3ncc(-c4ccccc4)cn3)C2)CC1` (stereo not given), 639 s. The result for `Cc1nc(N)nc(N)c1-c1ccc(Cl)c(Cl)c1` reads 642 s. Compound `O=C(NCc1ccc(S(=O)(=O)N2CCCC2)s1)c1cccc(-c2nnc(-c3ccccc3)o2)c1` yielded an RP-LC retention time of 948 s. For `O=C(NC1CCCCCC1)c1nc(-c2ccnc(N3CCCCC3)c2)no1` the value was 883 s; for `COc1cccc(CN2N=C(C(=O)N3CCOCC3)S(=O)(=O)c3ccc(Cl)cc32)c1`, 887 s. For `CC(=O)c1ccc(NC(=O)c2noc3c2CCCC3)cc1` the value was 871 s; for `N#CCCN1CCN(c2ccc(NC(=O)C3CC3)c(C(=O)O)c2)CC1`, 579 s; for `Cc1cc(C(=O)N2CC(c3nc(Cc4ccccc4)no3)C2)c(C)o1`, 836 s. The result for `O=C(Nc1ccc(N2CCN(c3ccccc3)C2=O)nc1)c1cc(F)cc(F)c1` reads 1020 s. Consider `O=S(=O)(Nc1ccc(Cn2cncn2)cc1)c1cc(F)cc(F)c1`, for which the RP-LC retention time is 708 s. The result for `CCOc1ccc(NS(=O)(=O)c2cc(C(=O)N3CCN(c4ccc(C)cc4C)CC3)n[nH]2)cc1` reads 1030 s; that for `Cn1c(C(=O)Nc2ccccc2F)cc2c(=O)oc3ccccc3c21`, 919 s; that for `COCCCNc1ncc(C(=O)O)c(-c2ccccc2)n1`, 804 s. The compound `COc1ccc(N2CCN(c3ccc4cc(S(=O)(=O)N5CCC(C)CC5)ccc4n3)CC2)cc1` displayed an RP-LC retention time of 1060 s. For `c1cnc(-c2n[nH]c(C3CCN(Cc4ccsc4)CC3)n2)cn1` the value was 559 s. In the case of `CC1CCN(S(=O)(=O)c2ccc3nn(Cc4cc(F)cc(F)c4)c(=O)n3c2)CC1`, the RP-LC retention time worked out at 1040 s. `CC(=O)Nc1ccc(S(=O)(=O)N2CCC(C(=O)N3CCN(c4ncccn4)CC3)CC2)cc1`: the RP-LC retention time is 666 s. For `CCn1c(=O)c2ccn(CC(=O)NCc3cc(OC)ccc3OC)c2n(CC)c1=O` the value was 811 s; for `O=C(Nc1cccc(Cl)c1)C1CCN(c2nccnc2Sc2ccccc2)CC1`, 1170 s.

For `O=C(Cn1cccc(-c2nc(-c3ccccc3)no2)c1=O)Nc1cccc(Br)c1`, the RP-LC retention time was 940 s. For `O=C(NCCn1c(=O)n(Cc2ccc(F)cc2)c2cccnc21)c1ccco1` the value was 719 s; for `Fc1cccc(F)c1-c1nc(-c2ccc3nncn3c2)no1`, 765 s; for `CCOC(=O)CSc1nnc(-c2cccnc2)n1-c1ccccc1`, 654 s. For `Cc1nc(N2CCN(C(c3ccccc3)c3ccccc3)CC2)nc2c1C(=O)CC(c1cccs1)C2` (stereo not given) the value was 1150 s; for `CCOC(=O)c1cc(S(=O)(=O)N2CCN(c3cccc(C)c3)C(C)C2)c(C)n1C` (stereo not given), 1090 s. For `Cc1cc(F)ccc1NC(=O)CN1C(=O)NC2(CCCCC2)C1=O` the value was 764 s; for `COc1cc2c(cc1CNC(=O)COc1ccc(Cl)cc1)OCCCO2`, 982 s. `COc1ccc(CNC2=NCCNC23CCN(S(=O)(=O)c2ccc(C)cc2C)CC3)cc1` came in with an RP-LC retention time of 775 s. In turn, `CCCN1C(=O)Cc2ccccc2C1C(=O)O` (stereo not given) came in with an RP-LC retention time of 668 s.

Consider `CCn1c(=O)c2cc(C(=O)Nc3ccc(OC)c(OC)c3)nn2c2ccccc21`, for which the RP-LC retention time was 837 s. Regarding `CCCN1C(=O)Cc2cc(C(=O)NC3CC3)ccc21`, the RP-LC retention time was determined as 652 s. For `FC(F)(F)c1cccc(Nc2c(-c3ccc(Cl)cc3)nc3cnccn23)c1` the value was 1090 s. The result for `Cc1oncc1CN1CCN(C(=O)c2c(F)cccc2Cl)CC1` reads 575 s.
